Measurements published in patent publication US20210379147A1, “METHOD AND SYSTEM FOR TREATING CANCER UTILIZING TINAGL1” (The Trustees of Princeton University, priority 2018, published 2021).

Experiments:
[1] = system: primary tumors and lung metastases; assay: IHC staining of tumor samples from treatment groups (Ki67, Casp3, CD31, α-SMA); type: in vivo, NSG female mice; conditions: for tumor cell proliferation (Ki67 staining): primary tumor and lung metastatic nodules
Protocol: FIGS. 17F-17I are graphs quantifying positives cells per field where primary tumors were collected from indicated treatment groups from FIG. 17D and then subjected to IHC staining with indicated antibodies, including % Ki67^+ (17F), % Casp3^+ (17G), % CD31^+ (17H), and % α-SMA^+ (17I).
TIC staining was performed as previously described (Wan et al., 2014). Briefly, Paraffin-embedded primary tumor or lung samples were sliced into 4 μm thickness. The slides were baked overnight at 60° C. Next, the tissue slides were washed with PBS after deparaffinization and hydration and then boiled in citrate buffer at 100° C. for 40 min. After treated with 3% H2O2 for 30 min to block endogenous peroxidase, slides were incubated at 4° C. overnight with Ki67 (Leica Biosystem, Ki67-MM1-L-CE-S), cleaved caspase-3 (Cell signaling, 9661S), p-EGFR (Cell signaling, 3777), p-FAK (Cell signaling, 8556), CD31 (Cell signaling, 77699), -SMA (Sigma, A5228), or Tinagl1 (Sigma, HPA048695) antibodies. Following washes with PBS, slides were then incubated with HRP-conjugated goat anti-rabbit or mouse secondary antibody (Genetech) for 30 min at room temperature. Sections were stained by DAB and then counterstained with Gill hematoxylin according to manufacturer's instructions.

LM2 cells = assay: LM2 orthotopic tumors, single or combined agent treatment; type: in vivo, NSG female mice; conditions: for spontaneous lung metastasis: LM2 tumors, ex vivo BLI at endpoint
Protocol: FIG. 17A is an image of WB analyses where NSG female mice were injected with 10^4 LM2 cells by MFP injection, and intravenously treated with the indicated reagents twice per week when tumors reached to 2 mm in dimeter, then after 5 weeks of the treatments, the primary tumors of each group were collected and activation of EGFR and FAK in primary tumor of each group were tested by WB.
FIG. 17B is a graph illustrating tumor volumes of each treatment group from FIG. 17A.
FIG. 17C is a graph, quantifying ex vivo BLI results where lungs in mice from FIG. 17A were collected and spontaneous metastasis was examined at the endpoint.
Two molecular targeting reagents, ATN-161 (ATN) and Erlotinib (Erlo) were employed. ATN is an integrin α5β1 antagonist that inhibits the integrin signaling pathway and slows tumor progression. Erlotinib is a well-established small molecular inhibitor of EGFR and is clinically approved for cancer treatment. Mice orthotopically implanted with LM2 cells were split into 6 groups after the tumors reached 2 mm in diameter and subjected to various single or combined agent treatments twice per week [(1) PBS; (2) ATN 30 μg/mouse; (3) Erlo 100 mg/kg; (4) r-Tinagl1 30 μg/mouse; (5) ATN and Erlo; and (6) ATN, Erlo, and r-Tinagl1]. Referring to FIG. 17A, the inhibition of integrin/FAK and EGFR upon each treatment was validated by western blotting and TIC staining.
(§1) For xenograft studies, 8-weeks immunocompromised NOD Scid Gamma (NSG) or immunocompetent FVB females were used. Cells were suspended in 10 μl of PBS for mammary gland injection (MFP), or were suspended in 100 μl of PBS for intravenous injection. For human patient-derived xenograft (PDX, HCL001, kindly provided by Dr. Alana Welm) study, we followed the standard protocol for PDX transplantation, maintenance and digestion of the tumors (DeRose et al., 2011). 2×10^4 cells were suspended in 10 μl of PBS and subjected to MFP injection. For recombinant Tinagl1 (r-Tinagl1), ATN-161, Erlotinib treatments, the mice were injected with 30 μg/mouse, 30 μg/mouse, and 100 mg/kg respectively twice per week via tail-vein. Primary tumors were quantified once per week via caliper measurement. All cell lines used for lung metastasis experiments were stably labeled with a firefly luciferase expressing vector and were monitored by weekly bioluminescent imaging (BLI). At protocol-defined endpoints, lungs were dissected and fixed in bouin's solution and the metastatic lesions were counted.

SUM159-M1a = SUM159-M1a orthotopic tumors, single or combined agent treatment; type: in vivo, NSG female mice; conditions: SUM159-M1a model
Protocol: FIG. 17D is an image of WB analyses where NSG female mice were injected with 10^4 M1a cells by MFP injection, and treated with the indicated reagents twice per week when tumors reached to 2 mm in diameter, then after 5 weeks of the treatments, the primary tumors of each group were collected and activation of EGFR and FAK in primary tumor of each group was tested by WB.
FIG. 17E is a graph illustrating tumor volumes of each treatment group from FIG. 17D.
as §1, with “For recombinant Tinagl1 (r-Tinagl1), ATN-161, Erlotinib treatments, the mice were injected with 30 μg/mouse, 30 μg/mouse, and 100 mg/kg respectively twice per week via tail-vein.” left out

human EGFR-GFP = target: T1, human EGFR-GFP (human, UniProt P00533 25-1210); assay: competition co-IP in lysate of HEK293T cells co-expressing Tinagl1-HA and GFP-EGFR; competitor of Tinagl1-HA
T1 construct: Printed both as GFP-EGFR and EGFR-GFP; the order of the two pieces is not certain; Expressed in HEK293T or LM2 cells, assayed in lysate; also called GFP-EGFR; not shown: GFP

[2] = target: T2, mutant integrin β1 subunit (β1-M) with deletion of aa 130-240 (human, UniProt P05556 21-798); assay: IP and WB from HEK293T cells overexpressing β1-M and Tinagl1-HA
T2 construct: Overexpressed in HEK293T cells, assayed in lysate; said to be still localized to the cell surface; also called β1-mutant; integrin subunit β1-Δ130-240aa
T2 sequence (P05556 other isoform, or with tags, fused parts or gaps mutant): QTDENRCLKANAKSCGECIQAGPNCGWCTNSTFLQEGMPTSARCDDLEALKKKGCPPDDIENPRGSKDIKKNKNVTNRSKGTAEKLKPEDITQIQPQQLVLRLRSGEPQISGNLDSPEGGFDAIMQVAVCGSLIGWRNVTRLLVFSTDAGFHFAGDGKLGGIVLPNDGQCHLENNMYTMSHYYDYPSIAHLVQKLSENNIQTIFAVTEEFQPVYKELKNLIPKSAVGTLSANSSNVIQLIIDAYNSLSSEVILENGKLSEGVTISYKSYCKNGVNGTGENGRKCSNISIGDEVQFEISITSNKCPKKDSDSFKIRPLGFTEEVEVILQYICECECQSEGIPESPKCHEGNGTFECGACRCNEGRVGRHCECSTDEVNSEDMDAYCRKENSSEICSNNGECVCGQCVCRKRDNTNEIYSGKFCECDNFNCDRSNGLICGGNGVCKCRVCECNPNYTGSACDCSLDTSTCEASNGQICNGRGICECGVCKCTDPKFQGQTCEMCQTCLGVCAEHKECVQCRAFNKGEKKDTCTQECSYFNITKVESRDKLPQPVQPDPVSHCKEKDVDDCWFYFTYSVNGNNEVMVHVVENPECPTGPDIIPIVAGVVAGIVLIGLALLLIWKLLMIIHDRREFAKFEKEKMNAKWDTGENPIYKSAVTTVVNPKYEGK
Protocol: Immunoprecipitation (IP) and western blotting (WB) analysis. For an IP experiment, cells were collected in 1.5 ml EP tube when they reached to 100% confluency in 10 or 15 cm dish as indicated. […] Meanwhile, culture media was 100× concentrated and mixed with the cell lysates. The samples were centrifuged, 100 μl of the supernatant was transferred to a new tube as input, and the rest was incubated with 2 μg of IgG, anti-HA, anti-Myc, anti-Integrin subunit β1, anti-Integrin subunit α5 or anti-EGFR (as indicated in each experiment) overnight at 4° C. (recombinant proteins may be added at this step as indicated in each experiment). […] The beads were then washed for 5 times with IP lysis buffer. After final spin, the beads were boiled with 50 μl of 1×SDS Laemmli buffer for 5 min, and the samples were subjected to western blotting (WB). […] 100 μl of combined solution was transferred to a new tube and served as input. The rest was split into two tubes and IP with 2 μg of IgG or His antibody respectively. The IP samples were washed with PBS and analyzed with WB.

For C#Cc1cccc(Nc2ncnc3cc(OCCOC)c(OCCOC)cc23)c1 [Erlotinib], the “CD31+ endothelium” value ([1]; primary and lung metastasis) was “significantly reduced”, the “tumor cell proliferation (Ki67 staining)” value [1] was “inhibited tumor cell proliferation in lung metastatic nodules but not primary sites” and the primary tumor growth (LM2 cells; LM2, twice per week, ATN 30 μg/mouse, Erlo 100 mg/kg, r-Tinagl1 30 μg/mouse) was “trended toward reducing primary tumor growth but did not reach statistical significance”. For the same molecule, the spontaneous lung metastasis (LM2 cells) was “reduced spontaneous lung metastasis” and the lung metastasis (SUM159-M1a) was “reduced lung metastasis”.

For ATN-161, the “tumor cell proliferation (Ki67 staining)” value [1] was “suppressed proliferation in primary tumor but not lung metastatic nodules” and the spontaneous lung metastasis (LM2 cells) was “no reduction was observed”.

B1: full length recombinant human Tinagl1 with 6xHis tag at the C-terminus (r-Tinagl1) (other)
chain: AQQGRGRRELAPGLHLRGIRDAGGRYCQEQDLCCRGRADDCALPYLGAICYCDLFCNRTVSDCCPDFWDFCLGVPPPFPPIQGCMHGGRIYPVLGTYWDNCNRCTCQENRQWQCDQEPCLVDPDMIKAINQGNYGWQAGNHSAFWGMTLDEGIRYRLGTIRPSSSVMNMHEIYTVLNPGEVLPTAFEASEKWPNLIHEPLDQGNCAGSWAFSTAAVASDRVSIHSLGHMTPVLSPQNLLSCDTHQQQGCRGGRLDGAWWFLRRRGVVSDHCYPFSGRERDEAGPAPPCMMHSRAMGRGKRQATAHCPNSYVNNNDIYQVTPVYRLGSNDKEIMKELMENGPVQALMEVHEDFFLYKGGIYSHTPVSLGRPERYRRHGTHSVKITGWGEETLPDGRTLKYWTAANSWGPAWGERGHFRIVRGVNECDIESFVLGVWGRVGMEDMGHHVDHHHHHH
notes: also called r-Tiangl1; recombinant Tinagl1 protein
B1: binds (human EGFR-GFP).

B2: C-terminal HA tagged Tinagl1 (Tinagl1-HA) (other)
chain: AQQGRGRRELAPGLHLRGIRDAGGRYCQEQDLCCRGRADDCALPYLGAICYCDLFCNRTVSDCCPDFWDFCLGVPPPFPPIQGCMHGGRIYPVLGTYWDNCNRCTCQENRQWQCDQEPCLVDPDMIKAINQGNYGWQAGNHSAFWGMTLDEGIRYRLGTIRPSSSVMNMHEIYTVLNPGEVLPTAFEASEKWPNLIHEPLDQGNCAGSWAFSTAAVASDRVSIHSLGHMTPVLSPQNLLSCDTHQQQGCRGGRLDGAWWFLRRRGVVSDHCYPFSGRERDEAGPAPPCMMHSRAMGRGKRQATAHCPNSYVNNNDIYQVTPVYRLGSNDKEIMKELMENGPVQALMEVHEDFFLYKGGIYSHTPVSLGRPERYRRHGTHSVKITGWGEETLPDGRTLKYWTAANSWGPAWGERGHFRIVRGVNECDIESFVLGVWGRVGMEDMGHH
notes: Expressed in LM2 or HEK293T cells; assayed in cell lysate mixed with concentrated culture media; also called Tiangl1-HA; not shown: human influenza hemagglutinin (HA) tag fused to the C-terminal
B2: no binding [2].
